Experiment [1] addresses T1, purine nucleoside phosphorylase (PNP) (Bos taurus, UniProt P55859).
T1 construct: using calf spleen as the enzyme source; from tissue; host or cells: calf spleen
T1 sequence (P55859 1-289): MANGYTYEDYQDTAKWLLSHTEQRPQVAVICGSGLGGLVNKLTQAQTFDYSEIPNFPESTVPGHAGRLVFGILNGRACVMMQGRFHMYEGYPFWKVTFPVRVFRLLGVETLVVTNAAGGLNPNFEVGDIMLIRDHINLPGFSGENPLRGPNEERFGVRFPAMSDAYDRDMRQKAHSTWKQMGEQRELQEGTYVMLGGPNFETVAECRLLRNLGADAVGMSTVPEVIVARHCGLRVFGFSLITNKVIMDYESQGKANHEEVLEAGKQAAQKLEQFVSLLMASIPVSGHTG
Nature of the experiment: PNP enzyme assay, radiochemical formation of [14C]-hypoxanthine from [14C]-inosine, calf spleen enzyme. The settings on record: for enzyme-inhibition activity: tested as in Example 8. The format is biochemical.

A further experiment has as its system plasma inosine. The experiment can be described thus: plasma inosine in Lewis Rats after intraperitoneal injection (HPLC). The settings on record: 30 mg (IA), twice per day, 10% DMSO aqueous carrier, vs vehicle controls, other compounds per procedure of Example 16. The format is in vivo. As to the method:
A pharmaceutical composition for intraperitoneal injection is prepared for testing the compound (IA). An intraperitoneal injection solution containing the compound (IA) is dissolved in an aqueous carrier that contains ten percent DMSO.
The compound (IA) is intraperitoneally injected into Lewis Rats via the test composition of Example 15 to provide 30 mg of the compound (IA), with an injection given twice per day. Controls are used, which receive only the vehicle. At specific times after administration, the animals are sacrificed and plasma samples are prepared. The plasma is extracted with cold 0.5N HClO4 and neutralized with solid NH4 HCO3. After removal of perchlorate salts, the extract is subjected to HPLC on a reversed phase column (Spherisorb ODSI).
Compounds prepared as in Examples 10-14 are each made into a pharmaceutical formulation in accordance with the preparation of Example 15 and the resultant injectable solutions are tested in accordance with the procedure of Example 16.

The structures appear in SMILES notation. Where two headings read alike, the source gives them in different places.

Take `Nc1nc2c(C3CC=CCC3)c[nH]c2c(=O)[nH]1` (centres unmarked) [IC, 2-amino-7-(3-cyclohexenyl)-3H, 5H-pyrrolo[3,2-d]-pyrimidin-4-one]: in experiment [1] (calf spleen PNP), the enzyme-inhibition activity entry is “significant enzyme-inhibition activity”.

In the case of `Nc1nc2c(C3C=CCCC3)c[nH]c2c(=O)[nH]1` (centres unmarked) [IB, 2-amino-7-(2-cyclohexenyl)-3H, 5H-pyrrolo[3,2-d]pyrimidin-4-one], the enzyme-inhibition activity result in experiment [1] (calf spleen PNP) is listed as “significant enzyme-inhibition activity”.

Consider `Nc1nc2c(C3CCCCC3)c[nH]c2c(=O)[nH]1` [ID, 2-amino-7-(cyclohexyl)-3H,5H-pyrrolo[3,2-d]-pyrimidin-4-one], for which the IC50 – broadly, the concentration that inhibits the measured activity by half – in experiment [1] came to 145 µM; in experiment [1] (1 mM phosphate, calf spleen PNP, read-out: IC50), 1.3 µM.

For `Nc1nc2c(C3=CCCCC3)c[nH]c2c(=O)[nH]1` [IA, 2-amino-7-(1-cyclohexenyl)-3H,5H-pyrrolo [3,2-d]pyrimidin-4-one], the “increase in plasma inosine” value in the experiment on plasma inosine was “significant increase in plasma inosine”.

The record behind these values is patent publication US4985434A, “7-substituted derivatives of 2-amino-3H,5H-pyrrolo(3,2-d)pyrimidin-4-ones and pharamceutical uses and compositions containing the same” (Biocryst, Inc., priority 1989, dated 1991).
